By pIC50 is commonly meant the IC50 on a negative log10 scale, so that one unit is a factor of ten. Read a low pIC50 as a large IC50.

The structures appear in SMILES notation. pIC50: −log10 of the molar value.

For test [1], the target named is T1, JAK1 (Homo sapiens, UniProt P23458).
T1 construct: purchased Carna 08-114
The experiment in a line: In vitro activity test of JAK1 kinase (Caliper EZ Reader conversion assay). The test is classed as biochemical. The settings on record: enzyme activity, 10 concentrations from 1000 nM, 3-fold dilution. As for the experimental part: (§1) In Vitro Activity Test of JAK1 and JAK2 Kinases
(§2) • Centrifuge (manufacturer: Eppendorf, model: 5430) • ELISA Instrument (Manufacturer: Perkin Elmer, Model: Caliper EZ Reader 1I) • Echo 550 (Manufacturer: Labcyte, Model: Echo 550)
(§3) (1) Prepare 1 Kinase buffer.
(§4) (2) Compound concentration gradient preparation: The test compound was tested at 1000 nM, 3-fold dilution, 10 concentrations, two-well assay, and configured to a 100-fold final concentration in a 384-well plate. 250 nl of the test compound was then transferred to the 384 reaction plate using Echo550. 250 nl of 100% DMSO was added to each of the negative and positive control wells.
(§5) (3) Prepare 2.5 times the final concentration of kinase solution with 1×Kinase buffer.
(§6) (4) Add 10 μL of 2.5 times the final concentration of kinase solution to the compound wells and 10 μL of 1×Kinase buffer to the negative control wells.
(§7) (5) Centrifuge at 1000 rpm for 30 seconds, mix well with shaking, and incubate at room temperature for 10 minutes.
(§8) (6) Prepare a 25/15-fold final concentration of mixture of ATP and Kinase substrate with 1×Kinase buffer.
(§9) (7) Add 15 μL of a mixture of 25/15 times the final concentration of ATP and substrate to start the reaction.
(§10) (8) Centrifuge the 384-well plate at 1000 rpm for 30 seconds, mix well with shaking, and incubate at room temperature for an appropriate amount of time.
(§11) (9) Stop the kinase reaction by adding 30 μL of termination solution, centrifuge at 1000 rpm for 30 seconds, and mix well with shaking.
(§12) (10) Read the conversion rate with Caliper EZ Reader.
(§13) where: Conversion %_sample is the conversion rate reading of the sample-, Conversion %_min: the average value of the negative control wells, representing the conversion reading of the wells without enzyme activity: Conversion %-max: the average value of the positive control wells, representing the conversion reading of the wells without compound inhibition.
(§14) The log value of concentration was used as the X-axis and the percentage inhibition as the Y-axis, and the function of the analytical software GraphPad Prism 5; log(inhibitor) vs. response -Variable slope, was used to lit dose-effect curves to obtain the IC50) values of each compound on enzyme activity.
(§15) The formula is Y=Bottom+(Top-Bottom)/(1+10^((LogIC50-X)*HillSlope))
(§16) The 1C50 data are specified in Table 1.

Test [2] concerns the target T2, JAK2 (Homo sapiens, UniProt O60674).
T2 construct: purchased Carna 08-045
The experiment in a line: In vitro activity test of JAK2 kinase (Caliper EZ Reader conversion assay). The format is biochemical. The settings on record: enzyme activity, 10 concentrations from 1000 nM, 3-fold dilution. The procedure:
as §1, §2, §3, §4, §5, §6, §7, §8, §9, §10, §11, §12, §13, §14, §15, §16

T2 sequence (O60674 whole entry, species assumed): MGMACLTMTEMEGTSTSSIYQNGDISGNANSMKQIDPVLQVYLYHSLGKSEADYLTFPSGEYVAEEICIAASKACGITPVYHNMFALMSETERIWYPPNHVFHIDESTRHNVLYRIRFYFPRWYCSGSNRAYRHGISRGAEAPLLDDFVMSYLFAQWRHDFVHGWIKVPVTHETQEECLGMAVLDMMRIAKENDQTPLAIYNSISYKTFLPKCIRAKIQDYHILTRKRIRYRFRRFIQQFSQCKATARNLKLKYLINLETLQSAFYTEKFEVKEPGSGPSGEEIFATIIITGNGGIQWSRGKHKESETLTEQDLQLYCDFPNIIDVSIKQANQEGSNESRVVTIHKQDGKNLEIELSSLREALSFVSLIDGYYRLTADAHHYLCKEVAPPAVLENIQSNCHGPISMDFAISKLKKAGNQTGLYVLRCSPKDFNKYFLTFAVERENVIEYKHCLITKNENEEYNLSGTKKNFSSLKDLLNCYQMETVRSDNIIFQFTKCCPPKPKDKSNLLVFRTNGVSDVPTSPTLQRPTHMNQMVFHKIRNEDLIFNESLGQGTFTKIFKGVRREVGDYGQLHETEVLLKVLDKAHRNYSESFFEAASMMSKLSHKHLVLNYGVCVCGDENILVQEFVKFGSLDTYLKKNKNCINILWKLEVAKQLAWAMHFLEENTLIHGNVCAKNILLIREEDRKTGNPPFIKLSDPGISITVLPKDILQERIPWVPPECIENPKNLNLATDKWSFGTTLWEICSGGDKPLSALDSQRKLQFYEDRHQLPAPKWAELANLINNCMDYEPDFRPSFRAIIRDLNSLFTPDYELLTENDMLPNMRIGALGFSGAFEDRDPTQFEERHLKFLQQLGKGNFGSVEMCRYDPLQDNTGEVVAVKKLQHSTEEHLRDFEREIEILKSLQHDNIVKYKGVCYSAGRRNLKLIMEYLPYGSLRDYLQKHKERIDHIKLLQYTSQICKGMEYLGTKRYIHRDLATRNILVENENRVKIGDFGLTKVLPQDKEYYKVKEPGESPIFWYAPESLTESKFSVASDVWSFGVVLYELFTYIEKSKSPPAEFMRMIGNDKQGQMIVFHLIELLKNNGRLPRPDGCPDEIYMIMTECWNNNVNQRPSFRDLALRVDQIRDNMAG
T1 sequence (P23458 whole entry, species assumed): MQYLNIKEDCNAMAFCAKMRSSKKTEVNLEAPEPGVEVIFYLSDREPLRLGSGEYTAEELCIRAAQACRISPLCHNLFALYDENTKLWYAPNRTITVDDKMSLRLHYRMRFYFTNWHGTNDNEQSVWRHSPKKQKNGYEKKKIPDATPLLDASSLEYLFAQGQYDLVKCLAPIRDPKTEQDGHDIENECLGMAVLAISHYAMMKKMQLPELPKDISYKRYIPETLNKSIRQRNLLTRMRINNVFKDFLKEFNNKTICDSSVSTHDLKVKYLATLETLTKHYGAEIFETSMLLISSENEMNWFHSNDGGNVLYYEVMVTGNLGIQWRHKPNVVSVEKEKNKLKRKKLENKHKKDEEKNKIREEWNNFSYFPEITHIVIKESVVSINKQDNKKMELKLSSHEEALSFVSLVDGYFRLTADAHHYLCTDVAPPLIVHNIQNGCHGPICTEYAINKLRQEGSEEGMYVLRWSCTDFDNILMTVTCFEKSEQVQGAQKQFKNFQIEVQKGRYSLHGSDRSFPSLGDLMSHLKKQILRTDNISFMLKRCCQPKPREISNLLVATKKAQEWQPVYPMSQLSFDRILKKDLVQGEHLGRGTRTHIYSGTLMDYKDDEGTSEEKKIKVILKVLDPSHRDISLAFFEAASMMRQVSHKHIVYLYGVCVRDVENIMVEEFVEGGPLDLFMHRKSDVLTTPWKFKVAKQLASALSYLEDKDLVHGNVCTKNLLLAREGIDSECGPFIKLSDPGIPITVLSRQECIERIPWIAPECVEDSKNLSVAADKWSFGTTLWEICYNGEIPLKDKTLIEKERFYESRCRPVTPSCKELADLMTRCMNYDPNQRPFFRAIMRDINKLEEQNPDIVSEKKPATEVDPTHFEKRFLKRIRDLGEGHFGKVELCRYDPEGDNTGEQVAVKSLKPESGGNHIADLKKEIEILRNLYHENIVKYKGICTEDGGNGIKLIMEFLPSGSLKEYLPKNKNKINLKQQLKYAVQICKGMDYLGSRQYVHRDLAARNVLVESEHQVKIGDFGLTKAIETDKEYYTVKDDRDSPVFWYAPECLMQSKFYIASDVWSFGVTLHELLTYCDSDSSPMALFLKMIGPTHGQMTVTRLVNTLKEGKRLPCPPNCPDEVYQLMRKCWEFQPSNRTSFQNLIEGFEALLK

With `N#CCCn1cc(-n2c(-c3ccccc3Cl)nc3cnc4[nH]ccc4c32)cn1` [LXS80, 3-(4-(2-(2-Chlorophenyl)imidazo[4,5-d]pyrrolo[2,3-b]pyridin-1(6H)-yl)-1H-pyrazol-1-yl)propanenitrile], the negative logarithm of the IC50 (pIC50) in test [1] and in test [2] was 7.00 to 8.00 throughout.
With `N#CCCn1cc(-n2c(-c3ccc(CO)o3)nc3cnc4[nH]ccc4c32)cn1` [LXS46, 3-(4-(2-(5-(Hydroxymethyl)furan-2-yl)imidazo[4,5-d]pyrrolo[2,3-b]pyridin-1(6H)-yl)-1H-pyrazol-1-yl)propanenitrile], the pIC50 is 7.00 to 8.00 in test [1] and above 8.00 in test [2].
The corresponding values for `C[C@@H](O)c1nc2cnc3[nH]ccc3c2n1C1CCN(C(=O)c2ccc(C#N)cc2)C1` (stereo partly drawn) [LXS02, 4-(3-(2-((R)-1-hydroxyethyl)imidazo[4,5-d]pyrrolo[2,3-b]pyridin-1(6H)-yl)pyrrolidin-1-carbonyl)benzonitrile] are 6.00 to 7.00 and 6.00 to 7.00.
Consider `C[C@@H](O)c1nc2cnc3[nH]ccc3c2n1C1CCN(C(=O)c2ccc(F)cc2)C1` (stereo partly drawn) [LXS03, (4-Fluorophenyl)(3-(2-((R)-1-Hydroxyethyl)imidazo[4,5-d]pyrrolo[2,3-b]pyridin-1(6H)-yl)pyrrolidin-1-yl)methanone], for which the pIC50 in test [1] and in test [2] was 6.00 to 7.00 in each case.
Regarding `C[C@@H](O)c1nc2cnc3[nH]ccc3c2n1C1CCN(C(=O)OC(C)(C)C)C1` (stereo partly drawn) [LXS01, tert-butyl 3-(2-((R)-1-hydroxyethyl)imidazo[4,5-d]pyrrolo[2,3-b]pyridin-1(6H)-yl)pyrrolidine-1-carboxylate], the pIC50 in test [1] and in test [2] was 6.00 to 7.00 throughout.
Turning to `C[C@@H](O)c1nc2cnc3[nH]ccc3c2n1C1CCN(S(=O)(=O)c2ccc(-c3ccccc3)cc2)C1` (stereo partly drawn) [LXS09, (1R)-1-(1-(1-([1,1′-biphenyl]-4-ylsulfonyl)pyrrolidin-3-yl)-1,6-dihydroimidazo[4,5-d]pyrrolo[2,3-b]pyridin-2-yl)ethan-1-ol], the pIC50 in test [1] is 6.00 to 7.00; in test [2], below 6.00.
For `CCCS(=O)(=O)N1CCC(n2c(-c3ccc(O)cc3O)nc3cnc4[nH]ccc4c32)C1` (stereo not drawn) [LXS31, 4-(1-(1-(Propylsulfonyl)pyrrolidin-3-yl)-1,6-dihydroimidazo[4,5-d]pyrrolo[2,3-b]pyridin-2-yl)benzene-1,3-diol] the same measures were 6.00 to 7.00 and 6.00 to 7.00.
For `CCCS(=O)(=O)N1CCC(n2c([C@@H](C)O)nc3cnc4[nH]ccc4c32)C1` (stereo partly drawn) [LXS05, (1R)-1-(1-(1-(propylsulfonyl)pyrrolidin-3-yl)-1,6-dihydroimidazo[4,5-d]pyrrolo[2,3-b]pyridin-2-yl)ethan-1-ol] the same measures were 7.00 to 8.00 and 6.00 to 7.00.
The corresponding values for `N#CCCn1cc(-n2cnc3cnc4[nH]ccc4c32)cn1` [LXS79, 3-(4-(Imidazo[4,5-d]pyrrolo[2,3-b]pyridin-1(6H)-yl)-1H-pyrazol-1-yl)propanenitrile] are 6.00 to 7.00 and above 8.00.
Regarding `C[C@@H](O)c1nc2cnc3[nH]ccc3c2n1[C@H]1CCN(CCCCC#N)C1` [LXS68, 5-((S)-3-(2-((R)-1-Hydroxyethyl)imidazo[4,5-d]pyrrolo[2,3-b]pyridin-1(6H)-yl)pyrrolidin-1-yl)pentanonitrile], the pIC50 in test [1] is above 8.00; in test [2] it was 6.00 to 7.00.
For `Oc1cccc(-c2nc3cnc4[nH]ccc4c3n2[C@H]2CCN(CCCC(F)(F)F)C2)c1` [LXS99, (S)-3-(1-(1-(4,4,4-trifluorobutyl)pyrrolidin-3-yl)-1,6-dihydroimidazo[4,5-d]pyrrolo[2,3-b]pyridin-2-yl)phenol] the same measures were 7.00 to 8.00 and 7.00 to 8.00.
For `O=C(NCC(F)(F)F)N1CCC(n2c(-c3cccc(O)c3)nc3cnc4[nH]ccc4c32)C1` (stereo not drawn) [LXS34, 3-(2-(3-Hydroxyphenyl)imidazo[4,5-d]pyrrolo[2,3-b]pyridin-1(6H)-yl)-N-(2,2,2-trifluoroethyl)pyrrolidine-1-carboxamide] the same measures were 6.00 to 7.00 and 6.00 to 7.00.
The corresponding values for `C[C@@H](O)c1nc2cnc3[nH]ccc3c2n1C1CCN(C(=O)C2(C#N)CC2)C1` (stereo partly drawn) [LXS61, 1-(3-(2-((R)-1-Hydroxyethyl)imidazo[4,5-d]pyrrolo[2,3-b]pyridin-1(6H)-yl)pyrrolidin-1-carbonyl)cyclopropanecarbonitrile] are 6.00 to 7.00 and 6.00 to 7.00.
For the compound `C[C@@H](O)c1nc2cnc3[nH]ccc3c2n1[C@@H]1CN(CCCC(F)(F)F)CC1F` (stereo partly drawn) [LXS86, (1R)-1-(1-((3R)-4-fluoro-1-(4,4,4-trifluorobutyl)pyrrolidin-3-yl)-1,6-dihydroimidazo[4,5-d]pyrrolo[2,3-b]pyridin-2-yl)ethan-1-ol], the negative logarithm of the IC50 (pIC50) was above 8.00 in test [1] and 6.00 to 7.00 in test [2].
With `C[C@@H](O)c1nc2cnc3[nH]ccc3c2n1C1CCN(C(=O)NCC(F)(F)F)C1` (stereo in doubt) [LXS20, (R)-3-(2-((R)-1-Hydroxyethyl)imidazo[4,5-d]pyrrolo[2,3-b]pyridin-1(6H)-yl)-N-(2,2,2-trifluoroethyl)pyrrolidine-1-carboxamide], the negative-log IC50 (pIC50) in test [1] and in test [2] was 6.00 to 7.00 each time.
With `C[C@@H](O)c1nc2cnc3[nH]ccc3c2n1C1CCN(S(=O)(=O)c2cccs2)C1` (stereo partly drawn) [LXS12, (1R)-1-(1-(1-(thiophen-2-ylsulfonyl)pyrrolidin-3-yl)-1,6-dihydroimidazo[4,5-d]pyrrolo[2,3-b]pyridin-2-yl)ethan-1-ol], the pIC50 in test [1] was 7.00 to 8.00; in test [2], 6.00 to 7.00.
Consider `C[C@@H](O)c1nc2cnc3[nH]ccc3c2n1[C@H]1CCN(CC(F)(F)C(F)(F)C(F)(F)F)C1` [LXS100, (R)-1-(1-((S)-1-(2,2,3,3,4,4,4-Heptafluorobutyl)pyrrolidin-3-yl)imidazo[4,5-d]pyrrolo[2,3-b]pyridin-2-yl)ethanol], for which the pIC50 in test [1] is above 8.00; in test [2], 6.00 to 7.00.
With `O=C(NCC(F)(F)F)N1CCC(n2c(-c3ccc(CO)o3)nc3cnc4[nH]ccc4c32)C1` (stereo in doubt) [LXS23, (R)-3-(2-(5-(hydroxymethyl)furan-2-yl)imidazo[4,5-d]pyrrolo[2,3-b]pyridin-1(6H)-yl)-N-(2,2,2-trifluoroethyl)pyrrolidine-1-carboxamide], the negative-log IC50 (pIC50) in test [1] and in test [2] was 6.00 to 7.00 each time.
Turning to `C[C@@H](O)c1nc2cnc3[nH]ccc3c2n1[C@H]1CCN(CC(=O)NCC(F)(F)F)C1` [LXS74, 2-((S)-3-(2-((R)-1-Hydroxyethyl)imidazo[4,5-d]pyrrolo[2,3-b]pyridin-1(6H)-yl)pyrrolidin-1-yl)-N-(2,2,2-trifluoroethyl)acetamide], the negative logarithm of the IC50 (pIC50) is above 8.00 in test [1] and 6.00 to 7.00 in test [2].
Take `COc1ccc(-c2nc3cnc4[nH]ccc4c3n2C2CCC(C#N)CC2)c(O)c1` (stereo in doubt) [LXS41, trans-4-(2-(2-Hydroxy-4-methoxyphenyl)imidazo[4,5-d]pyrrolo[2,3-b]pyridin-1(6H)-yl)cyclohexanecarbonitrile]: the negative-log IC50 (pIC50) in test [1] and in test [2] was 6.00 to 7.00 each time.
With `CCS(=O)(=O)N1CCC(n2c([C@@H](C)O)nc3cnc4[nH]ccc4c32)C1` (stereo partly drawn) [LXS04, (1R)-1-(1-(1-(ethylsulfonyl)pyrrolidin-3-yl)-1,6-dihydroimidazo[4,5-d]pyrrolo[2,3-b]pyridin-2-yl)ethan-1-ol], the negative-log IC50 (pIC50) in test [1] is 7.00 to 8.00; in test [2], 6.00 to 7.00.
The corresponding values for `N#C[C@H]1CC[C@H](n2c(-c3ccc(O)cc3F)nc3cnc4[nH]ccc4c32)CC1` (stereo in doubt) [LXS39, trans-4-(2-(2-Fluoro-4-hydroxyphenyl)imidazo[4,5-d]pyrrolo[2,3-b]pyridin-1(6H)-yl)cyclohexanecarbonitrile] are 7.00 to 8.00 and 6.00 to 7.00.
With `C[C@@H](O)c1nc2cnc3[nH]ccc3c2n1[C@H]1CCN(CCC#N)C1` [LXS59, 3-((S)-3-(2-((R)-1-hydroxyethyl)imidazo[4,5-d]pyrrolo[2,3-b]pyridin-1(6H)-yl)pyrrolidin-1-yl)propanenitrile], the pIC50 in test [1] is 7.00 to 8.00; in test [2] it was 6.00 to 7.00.
For `N#C[C@H]1CC[C@H](n2c(-c3ccccc3O)nc3cnc4[nH]ccc4c32)CC1` (stereo in doubt) [LXS38, trans-4-(2-(2-Hydroxyphenyl)imidazo[4,5-d]pyrrolo[2,3-b]pyridin-1(6H)-yl)cyclohexanecarbonitrile] the same measures were 7.00 to 8.00 and 7.00 to 8.00.

The values are drawn from patent US20240383898A1, “PYRIDO RING COMPOUND, PREPARATION METHOD THEREFOR, INTERMEDIATE, COMPOSITION, AND APPLICATION” (YIYOU BIOTECH (SHANGHAI) CO., LTD, priority 2021, published 2024).
